According to patent US20200239530A1, “COMPOUNDS AND METHODS OF MODULATING PROTEIN DEGRADATION” (Vividion Therapeutics, Inc., priority 2017, published 2020):
Read-outs that look alike come from different tables or passages of the source.

Columns and labels:
Assay in all cases: Cysteine liganding, probe competition
Format in all cases: binding
UniProt Q8IWR1 = target: T1, UniProt Q8IWR1 (Homo sapiens, UniProt Q8IWR1)
T1 construct: 200 μL of lysate containing 5 mg/ml proteome was treated with 2 μL of 100× compound stock; endogenous in cells
T1 sequence (Q8IWR1 1-403): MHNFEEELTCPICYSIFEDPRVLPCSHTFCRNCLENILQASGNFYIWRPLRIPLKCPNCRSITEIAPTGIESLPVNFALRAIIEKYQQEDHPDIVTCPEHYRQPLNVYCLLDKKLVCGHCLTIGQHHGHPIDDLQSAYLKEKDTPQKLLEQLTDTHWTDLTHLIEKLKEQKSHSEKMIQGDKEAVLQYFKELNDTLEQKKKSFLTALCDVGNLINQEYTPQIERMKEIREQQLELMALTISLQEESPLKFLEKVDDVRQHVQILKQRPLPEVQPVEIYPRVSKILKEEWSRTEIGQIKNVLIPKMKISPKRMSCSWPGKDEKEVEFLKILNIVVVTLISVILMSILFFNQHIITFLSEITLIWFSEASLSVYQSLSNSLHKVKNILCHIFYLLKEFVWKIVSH
Description: (§1) The following 96-well sample prep protocol was used for sample preparation.

UniProt Q9H0F6 = target: T2, UniProt Q9H0F6 (Homo sapiens, UniProt Q9H0F6); details: read-out: percent_inhibition
T2 construct: 200 μL of lysate containing 5 mg/ml proteome was treated with 2 μL of 100× compound stock; endogenous in cells
T2 sequence (Q9H0F6 whole entry, change not shown): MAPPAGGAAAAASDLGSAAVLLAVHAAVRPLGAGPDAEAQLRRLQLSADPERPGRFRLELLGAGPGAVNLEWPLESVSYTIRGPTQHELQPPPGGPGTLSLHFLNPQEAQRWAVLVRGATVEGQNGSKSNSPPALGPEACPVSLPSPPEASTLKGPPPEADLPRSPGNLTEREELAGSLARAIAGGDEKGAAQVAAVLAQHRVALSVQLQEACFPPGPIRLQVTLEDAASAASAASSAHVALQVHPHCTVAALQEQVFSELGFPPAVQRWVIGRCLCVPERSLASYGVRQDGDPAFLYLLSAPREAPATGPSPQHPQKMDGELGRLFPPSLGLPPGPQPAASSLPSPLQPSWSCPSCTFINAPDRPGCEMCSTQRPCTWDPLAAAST
Description: as §1

UniProt Q9H0F5 = target: T3, UniProt Q9H0F5 (Homo sapiens, UniProt Q9H0F5); details: for percent_inhibition / inhibition at 500 µM: 500 uM
T3 construct: 200 μL of lysate containing 5 mg/ml proteome was treated with 2 μL of 100× compound stock; endogenous in cells
T3 sequence (Q9H0F5 whole entry, change not shown): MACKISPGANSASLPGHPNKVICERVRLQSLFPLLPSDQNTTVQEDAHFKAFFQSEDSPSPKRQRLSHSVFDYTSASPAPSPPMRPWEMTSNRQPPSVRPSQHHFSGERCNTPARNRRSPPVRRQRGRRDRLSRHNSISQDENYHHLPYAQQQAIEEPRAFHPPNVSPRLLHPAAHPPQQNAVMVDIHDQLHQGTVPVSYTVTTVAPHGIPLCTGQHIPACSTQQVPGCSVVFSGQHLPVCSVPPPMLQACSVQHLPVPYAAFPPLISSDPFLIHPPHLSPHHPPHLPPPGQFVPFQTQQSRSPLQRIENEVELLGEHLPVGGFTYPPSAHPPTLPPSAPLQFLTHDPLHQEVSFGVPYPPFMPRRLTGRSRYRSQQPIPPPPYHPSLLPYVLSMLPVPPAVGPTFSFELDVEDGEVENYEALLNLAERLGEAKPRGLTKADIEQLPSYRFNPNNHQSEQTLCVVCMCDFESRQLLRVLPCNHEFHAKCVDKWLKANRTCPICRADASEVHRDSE
Description: as §1

UniProt Q9Y2Z0 = target: T4, UniProt Q9Y2Z0 (Homo sapiens, UniProt Q9Y2Z0); details: read-out: percent_inhibition
T4 construct: 200 μL of lysate containing 5 mg/ml proteome was treated with 2 μL of 100× compound stock; endogenous in cells
T4 sequence (Q9Y2Z0 whole entry, change not shown): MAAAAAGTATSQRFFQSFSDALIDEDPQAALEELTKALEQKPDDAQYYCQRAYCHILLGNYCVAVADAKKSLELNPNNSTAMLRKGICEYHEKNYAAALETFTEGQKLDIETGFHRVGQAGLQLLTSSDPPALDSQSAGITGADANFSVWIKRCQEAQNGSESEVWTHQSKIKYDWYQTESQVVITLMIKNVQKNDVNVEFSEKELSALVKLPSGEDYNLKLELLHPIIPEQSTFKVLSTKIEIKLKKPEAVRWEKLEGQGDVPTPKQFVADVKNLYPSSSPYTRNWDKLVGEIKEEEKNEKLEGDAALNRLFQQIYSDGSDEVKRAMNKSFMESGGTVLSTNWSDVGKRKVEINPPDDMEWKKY
Description: as §1

UniProt O60683 = target: T5, UniProt O60683 (Homo sapiens, UniProt O60683)
T5 construct: 200 μL of lysate containing 5 mg/ml proteome was treated with 2 μL of 100× compound stock; endogenous in cells
T5 sequence (O60683 whole entry, change not shown): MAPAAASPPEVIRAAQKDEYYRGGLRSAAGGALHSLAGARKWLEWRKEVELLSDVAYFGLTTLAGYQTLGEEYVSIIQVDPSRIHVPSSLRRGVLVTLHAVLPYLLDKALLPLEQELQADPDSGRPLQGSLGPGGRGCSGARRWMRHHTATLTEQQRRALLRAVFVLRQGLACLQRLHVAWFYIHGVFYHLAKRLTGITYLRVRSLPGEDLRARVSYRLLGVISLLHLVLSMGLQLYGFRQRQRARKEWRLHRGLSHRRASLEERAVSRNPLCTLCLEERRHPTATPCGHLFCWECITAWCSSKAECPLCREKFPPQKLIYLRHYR
Description: as §1

UniProt Q12899 = target: T6, UniProt Q12899 (Homo sapiens, UniProt Q12899)
T6 construct: 200 μL of lysate containing 5 mg/ml proteome was treated with 2 μL of 100× compound stock; endogenous in cells
T6 sequence (Q12899 whole entry, change not shown): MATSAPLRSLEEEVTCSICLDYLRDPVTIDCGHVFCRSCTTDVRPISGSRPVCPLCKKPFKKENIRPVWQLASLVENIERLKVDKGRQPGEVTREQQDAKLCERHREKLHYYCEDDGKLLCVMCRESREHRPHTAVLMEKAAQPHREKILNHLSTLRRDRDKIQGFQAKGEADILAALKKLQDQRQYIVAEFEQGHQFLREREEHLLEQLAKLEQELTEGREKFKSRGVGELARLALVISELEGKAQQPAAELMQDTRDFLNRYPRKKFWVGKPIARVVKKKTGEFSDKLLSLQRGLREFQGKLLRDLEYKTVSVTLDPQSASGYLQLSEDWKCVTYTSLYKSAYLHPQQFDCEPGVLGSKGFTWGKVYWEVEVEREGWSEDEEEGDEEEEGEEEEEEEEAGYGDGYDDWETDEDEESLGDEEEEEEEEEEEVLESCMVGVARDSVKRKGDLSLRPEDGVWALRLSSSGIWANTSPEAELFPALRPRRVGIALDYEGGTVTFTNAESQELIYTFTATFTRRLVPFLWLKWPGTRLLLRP
Description: as §1

UniProt Q9BZR9 = target: T7, UniProt Q9BZR9 (Homo sapiens, UniProt Q9BZR9)
T7 construct: 200 μL of lysate containing 5 mg/ml proteome was treated with 2 μL of 100× compound stock; endogenous in cells
T7 sequence (Q9BZR9 1-551): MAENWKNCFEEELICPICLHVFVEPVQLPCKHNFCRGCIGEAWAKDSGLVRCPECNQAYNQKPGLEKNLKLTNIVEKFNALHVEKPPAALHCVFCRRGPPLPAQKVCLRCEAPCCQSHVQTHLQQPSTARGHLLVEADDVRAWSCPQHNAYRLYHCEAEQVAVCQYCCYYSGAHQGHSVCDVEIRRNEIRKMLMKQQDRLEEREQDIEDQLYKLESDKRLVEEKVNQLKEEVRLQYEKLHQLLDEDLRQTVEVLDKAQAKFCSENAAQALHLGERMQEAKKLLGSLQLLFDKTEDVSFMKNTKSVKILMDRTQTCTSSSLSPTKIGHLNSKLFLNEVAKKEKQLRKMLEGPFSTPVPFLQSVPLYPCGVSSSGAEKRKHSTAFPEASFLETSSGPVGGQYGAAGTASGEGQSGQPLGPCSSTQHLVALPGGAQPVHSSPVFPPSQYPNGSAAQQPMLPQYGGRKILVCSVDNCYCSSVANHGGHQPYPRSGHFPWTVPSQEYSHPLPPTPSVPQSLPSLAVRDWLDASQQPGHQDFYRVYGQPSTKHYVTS
Description: as §1

UniProt Q6ZNB6 = target: T8, UniProt Q6ZNB6 (Homo sapiens, UniProt Q6ZNB6); details: for percent inhibition: 100 uM
T8 construct: Cells were resuspended in cold PBS on ice and sonicated with a probe sonicator to achieve lysis; endogenous in cells
T8 sequence (Q6ZNB6 1-911): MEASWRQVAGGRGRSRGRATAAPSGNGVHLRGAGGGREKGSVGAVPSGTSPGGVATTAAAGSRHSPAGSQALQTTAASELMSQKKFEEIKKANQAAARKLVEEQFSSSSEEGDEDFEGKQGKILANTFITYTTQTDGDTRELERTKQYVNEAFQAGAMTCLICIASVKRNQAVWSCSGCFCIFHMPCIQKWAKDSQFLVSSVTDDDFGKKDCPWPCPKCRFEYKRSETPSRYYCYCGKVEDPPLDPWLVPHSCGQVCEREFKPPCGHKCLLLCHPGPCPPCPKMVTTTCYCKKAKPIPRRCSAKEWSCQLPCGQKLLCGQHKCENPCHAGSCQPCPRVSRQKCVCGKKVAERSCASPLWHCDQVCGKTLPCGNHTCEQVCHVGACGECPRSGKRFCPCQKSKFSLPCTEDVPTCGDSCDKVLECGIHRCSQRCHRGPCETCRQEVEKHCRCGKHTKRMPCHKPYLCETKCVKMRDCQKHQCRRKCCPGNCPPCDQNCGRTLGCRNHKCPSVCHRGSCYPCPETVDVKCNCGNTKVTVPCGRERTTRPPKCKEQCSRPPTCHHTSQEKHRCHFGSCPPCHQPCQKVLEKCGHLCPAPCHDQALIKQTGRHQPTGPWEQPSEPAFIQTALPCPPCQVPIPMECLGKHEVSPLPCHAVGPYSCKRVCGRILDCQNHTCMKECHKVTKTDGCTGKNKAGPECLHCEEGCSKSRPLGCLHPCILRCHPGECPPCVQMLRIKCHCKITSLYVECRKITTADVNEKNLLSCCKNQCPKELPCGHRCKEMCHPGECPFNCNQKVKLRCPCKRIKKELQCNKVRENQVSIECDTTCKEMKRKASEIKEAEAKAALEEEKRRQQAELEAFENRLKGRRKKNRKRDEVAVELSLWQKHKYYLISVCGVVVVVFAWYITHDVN
Description: as §1

UniProt A1L020 = target: T9, UniProt A1L020 (Homo sapiens, UniProt A1L020)
T9 construct: Cells were resuspended in cold PBS on ice and sonicated with a probe sonicator to achieve lysis; endogenous in cells
T9 sequence (A1L020 whole entry, change not shown): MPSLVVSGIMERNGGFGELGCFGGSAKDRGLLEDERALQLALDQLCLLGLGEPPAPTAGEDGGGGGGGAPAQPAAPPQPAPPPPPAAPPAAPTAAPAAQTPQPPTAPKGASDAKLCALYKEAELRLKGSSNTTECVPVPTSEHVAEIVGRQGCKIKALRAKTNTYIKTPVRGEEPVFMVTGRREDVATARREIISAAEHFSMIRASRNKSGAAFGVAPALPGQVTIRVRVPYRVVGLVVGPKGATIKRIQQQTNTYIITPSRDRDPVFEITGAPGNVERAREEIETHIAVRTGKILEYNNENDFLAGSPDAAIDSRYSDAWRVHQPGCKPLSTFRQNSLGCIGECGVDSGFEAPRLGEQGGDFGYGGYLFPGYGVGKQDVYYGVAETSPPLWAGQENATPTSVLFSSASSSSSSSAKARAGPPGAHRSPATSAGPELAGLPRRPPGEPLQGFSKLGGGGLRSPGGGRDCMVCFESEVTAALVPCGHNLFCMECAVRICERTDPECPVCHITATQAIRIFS
Description: as §1

[1] = read-out: KB02_100 uM_percent_inhibition
[2] = read-out: KB05_100 uM_percent_inhibition

SMILES	inhibition at 100 µM (UniProt Q8IWR1; [1])	KB02_500 uM_percent_inhibition (UniProt Q8IWR1; 500 uM)	inhibition at 500 µM (UniProt Q8IWR1; 500 uM, read-out: KB02_500 uM_percent_inhibition)	inhibition at 100 µM (UniProt Q9H0F6)	inhibition at 100 µM (UniProt Q9H0F5; 100 uM, read-out: percent_inhibition)	percent_inhibition (UniProt Q9H0F5)	inhibition at 500 µM (UniProt Q9H0F5; read-out: percent_inhibition)	inhibition at 100 µM (UniProt Q9Y2Z0)	inhibition at 100 µM (UniProt O60683; [1])	inhibition at 100 µM (UniProt Q8IWR1; [2])	inhibition at 100 µM (UniProt Q12899; [2])	KB05_100 uM_percent_inhibition (UniProt Q9BZR9; 100 uM)	inhibition at 100 µM (UniProt Q9BZR9; [2])	percent inhibition (UniProt Q6ZNB6)	inhibition at 100 µM (UniProt Q6ZNB6; read-out: percent inhibition)	inhibition at 100 µM (UniProt A1L020; read-out: percent inhibition)	inhibition at 100 µM (UniProt O60683; [2])	KB03_100 uM_percent_inhibition (UniProt Q12899; 100 uM)	KB03_100 uM_percent_inhibition (UniProt Q9BZR9; 100 uM)	percent inhibition (UniProt A1L020; 100 uM)
COc1ccc2c(c1)CCCN2C(=O)CCl [KB02]	46%	66%	58%	3%	44%	42%	24%	20%	51%	–	–	–	–	–	–	–	–	–	–	–
C=CC(=O)N(c1ccccc1)c1ccc(Br)cc1 [KB05]	–	–	–	25%	–	10%	16%	31%	–	38%	28%	16%	10%	36%	21%	19%	37%	–	–	–
O=C(CCl)Nc1cc(C(F)(F)F)cc(C(F)(F)F)c1 [KBO3]	–	–	–	–	–	–	–	–	–	–	–	–	–	20%	–	–	–	56%	39%	52%
